Experimental data as given in patent publication US8790665B2, “Serum protein-based detection of random sequence polymer compositions” (Ares Trading SA, priority 2009, dated 2014).
“Also recorded” adds a separate entry of the source.

Assays:
[1] = system: Ig fraction of rabbit polyserum; assay: ELISA with Ig fraction of rabbit polyserum; format: binding; details: FIG. 13
[2] = YEAK in the serum of mice dosed IV or SC, detected by anti-YEAK ELISA; format: in vivo; details: FIG. 4
CCL22 = assay: Acute release of CCL22 (MDC) in serum or plasma after YEAK administration in mice; format: in vivo; details: FIG. 5
[3] = several hours after subcutaneous administration; various species, including man; cited from earlier work
HLA-DR2 (DRB1*1501) = HLA-DR2 (DRB1*1501) (Homo sapiens, UniProt P01903+P01911); details: peptide-specific manner; cited from earlier work
HLA-DR1 (DRB1*0101) = HLA-DR1 (DRB1*0101) (Homo sapiens, UniProt P01903+P01911, A100R/D57E/F55L/F60I/F76Y/I96L/L162R/M171V/P40L/Q125E/R42F/V115G/Y59C); details: peptide-specific manner; cited from earlier work
RAW264.7 = assay: Bioassay: CCL22 release by monocyte cell line RAW264.7; format: cell-based; details: RAW264.7 cells exposed to copolymer; FIGS. 10, 15
Description: Following synthesis of RSP compositions of different lengths, for example by solid phase synthesis or by solution phase synthesis, the individual lots or batches made by the same manufacturing process, and individual batches of mixtures manufactured by different processes are tested and compared for variation using bioassays such as the release of CCL22 by the monocyte cell line RAW264.7, by ex vivo proliferation assays, and by measuring the binding of serum proteins to peptides in the RSP composition, it is possible to determine subsets of peptides or even individual peptides that are present in any given process or lot. Processes and lots of RSP compositions will be compared to determine whether the same subsets of peptides and/or types of peptides are consistently represented across the different processes and lots.

HLA-DR4 (DRB1*0401) = HLA-DR4 (DRB1*0401) (Homo sapiens, UniProt P01903+P01911, A100K/A169T/F76Y/I96L/K127E/L162R/M171V/N62H/P40V/Q125Y/R42H/S133A/S149N/S66Y/V115G/V209L/W38E); details: peptide-specific manner; cited from earlier work
serum proteins = assay: Identification of serum proteins bound to PI-2301 or Cop-1 (ELISA / CNBr-Sepharose capture, LC-MS/MS); format: binding, human; details: for serum proteins identified as bound: LC-MS/MS of tryptic digest, samples from Example 1 or 2; for binding to the serum proteins listed in Table C: normal human serum, direct ELISA
From the text: As a non-limiting example of the above described identification, PI-2301 or Cop-1 may be used in a direct ELISA assay (see Materials and Methods) to identify serum proteins that bind to the RSP composition comprising YFAK or YEAK peptides. […] It has been observed that YEAK and YFAK peptides have different binding specificities; conversely, serum proteins can be said to bind YEAK and YFAK peptides with different specificities. Tables D and E list serum proteins which associate with HDL and LDL, respectively. Any serum proteins may bind to the RSP composition described herein by varying affinities and selectivities.
An uncoated ELISA plate was blocked with PBS/0.1% Tween 20 for 2 hours at room temperature. PI-2301 or Cop-1 samples were serially diluted in PBS/5% normal human serum and added to the blocked and washed wells of the ELISA plate. The PI-2301 or Cop-1 in normal human serum was bound to the plate and unbound PI-2301 or Cop-1 was removed by washing the plate with PBS/0.05% Tween 20. Protein-A-purified anti-rabbit anti-PI-2301 or anti-rabbit anti-Cop-1, diluted to a suitable concentration based on the titer, was added for 1 hr at RT. After another wash step to remove the unbound rabbit anti-2301 or rabbit anti-Cop-1 antibodies, a secondary antibody, a goat anti-rabbit IgG-HRP (horse radish peroxidase conjugated antibody to rabbit IgG) was added to the well. After washing away any unbound secondary antibody, substrate for HRP was added to the wells and incubated for 15 minutes, which yielded a blue color that turns yellow when stop solution is added, the intensity of which color correlates with the amount of total PI-2301 or Cop-1 in the well. The optical density was measured at 450 nm with a ELISA plate reader and a titer curve was generated for each set of the serum samples spiked with PI-2301 and Cop-1, respectively. The limit of serum PI-2301 or serum Cop-1 detection is defined as the concentration which results in a A450 nm absorption which is 3 times above background. […]
Immobilized RSP compositions were prepared by reacting the peptides with CNBr-activated Sepharose®, a pre-activated large pore chromatography medium used for immobilizing ligands (proteins, peptides, nucleic acids) containing primary amines using the cyanogens bromide method. […] After pH neutralization, the absorbance at 280 nm of the eluted fractions was read to identify fractions containing the ligands. […]
Samples containing PI-2301 binding proteins or Cop-1 binding proteins were obtained by the method of Example 1 or Example 2. These samples were then enzymatically digested and analyzed by liquid chromatography tandem mass spectrometry (LC-MS/MS) for the purpose of identify the proteins which bind PI-2301 or Cop-1. […]

[4] = system: preclinical models of multiple sclerosis and Crohn's disease; assay: Efficacy in preclinical models of multiple sclerosis and Crohn's disease; format: in vivo
From the text: Without wishing to be bound by theory, mechanistically, binding of peptides within RSP compositions, (e.g. PI-2301 and Cop-1) to the serum proteins such as lipoproteins found associated with HDL and LDL might facilitate their capture by monocytes through receptors such as SR-BI or ABCA1. This binding may induce activation of monocytes and their differentiation into anti-inflammatory cells. PI-2301 and Cop-1 differ in binding to serum proteins (see FIG. 3). One reason for the difference is that Cop-1 and generic variants of glatiramer acetates are made by solution phase peptide synthesis, thus significant variations in composition may be observed from lot to lot. In contrast, PI-2301 is manufactured by solid phase synthesis. […] Thus, the great majority of the PI-2301 52-mer peptides in the mixture is likely to be functional. Cop-1 has a much broader molecular weight distribution, making it likely that some species of the mixture, such as small peptide species, in the mixture are ineffective.

[5] = administered at the same initial weight-by-volume concentration; cited from earlier work
[6] = Serum concentration / exposure of PI-2301 compared with Cop-1; details: in vivo
From the text: Certain RSP compositions persist much longer in the serum and other biological fluids than other mixtures. For example, a preparation of YFAK, PI-2301, is found at 10 times the serum concentration in comparison to Cop-1 administered at the same initial weight-by-volume concentration (US App. Pub. 2009-0275496). In some instances, the administered peptides are sequestered by or bound to some in vivo component in situ, the result of which is longer half-life in that environment, with or without enhancement in bioavailability. In certain embodiment, the environment is blood plasma or lymph. In an alternative embodiment, the environment is spinal or cerebral fluid. In yet other embodiments, the environment is any tissue or organ locale to which peptides from RSP compositions are delivered.
Without wishing to be bound by theory, mechanistically, binding of peptides within RSP compositions, (e.g. PI-2301 and Cop-1) to the serum proteins such as lipoproteins found associated with HDL and LDL might facilitate their capture by monocytes through receptors such as SR-BI or ABCA1. This binding may induce activation of monocytes and their differentiation into anti-inflammatory cells. PI-2301 and Cop-1 differ in binding to serum proteins (see FIG. 3). […]

Substance: glatiramer acetate [Cop-1]
- recognition by Ig fraction of rabbit polyserum [1]: interacts strongly
- maximum serum concentration ([2]; mice dosed IV with 4 mg/kg or SC with 21 mg/kg, route for this value not stated): 1800 ng/mL
- time of maximum serum concentration ([2]; post dosing, mice IV 4 mg/kg or SC 21 mg/kg): around 15 min
- relation between SC dose and observed maximum CCL22 plasma concentration (CCL22): linear correlation
- detection in serum [3]: can be detected
- binding affinity to purified HLA-DR2 (DRB1*1501) (HLA-DR2 (DRB1*1501)): binds with high affinity
- binding affinity to purified HLA-DR1 (DRB1*0101) (HLA-DR1 (DRB1*0101)): binds with high affinity
- CCL22 release (RAW264.7): released CCL22 in a concentration dependent manner
- binding affinity to purified HLA-DR4 (DRB1*0401) (HLA-DR4 (DRB1*0401)): binds with high affinity
- serum proteins identified as bound (serum proteins): several lipoproteins from the HDL and LDL complexes; also recorded: complement proteins such as C3 and C4A
- binding to the serum proteins listed in Table C (serum proteins): experimentally shown to bind

Substance: plovamer [PI-2301]
- detection in serum [3]: can be detected
- efficacy (potency) compared with Cop-1 [4]: more potent than Cop-1
- serum concentration in comparison to Cop-1 [5]: 10 times
- serum proteins identified as bound (serum proteins): several lipoproteins from the HDL and LDL complexes
- binding to the serum proteins listed in Table C (serum proteins): experimentally shown to bind
- serum exposure compared with Cop-1 [6]: greater serum exposure
